The values below come from US11358931B2, “Selective androgen receptor modulators (SARMs) and uses thereof” (priority 2007, dated 2022).

Assay type in all cases: cell-based
Test [1] deals with human skeletal α-actin promoter activity. As to the kind of experiment: Skeletal α-actin promoter assay (C2C12 cells transfected with human AR). The conditions noted are these: for pEC50: C2C12, read-out: EC50, activation of skeletal α-actin promoter; for efficacy, % of DHT: C2C12 mouse muscle cells. The text has this:
An exemplary assay for measuring AR-mediated gene expression in mouse muscle cells is the human skeletal α-actin assay. A mouse muscle cell line (C2C12, obtained from American Type Cell Culture (ATCC, Rockville, Md.)) can be used in the luciferase reporter assay. An SK α-actin-LUC reporter plasmid is constructed by inserting the skeletal α-actin promoter sequence into a luciferase reporter vector (e.g., by cloning the human skeletal α-actin promoter region from −77 to +202 bp from human liver genomic DNA (Clontech, Palo Alti, Calif.) and inserting the sequence into a pGL3-Basic reporter plasmid (Promega, Madison, Wis.)). The C2C12 cell line can be transiently transfected with a human AR expression plasmid and a luciferase reporter plasmid containing the skeletal α-actin promoter upstream of the luciferase cDNA. The compounds to be tested are added to the cells after transfection and after 24 hours of incubation, the cells are lysed with a detergent-containing buffer and assayed for luciferase activity.
Compound 102 was tested to determine its ability to activate human skeletal α-actin using the skeletal α-actin promoter assay. A mouse muscle cell line (C2C12) was transiently transfected with a human AR expression plasmid and a luciferase reporter plasmid containing the skeletal α-actin promoter upstream of the luciferase cDNA. C2C12 cells (at a concentration of 5×10^5) were seeded in a T25 flask and cultured for 24 hours. The cells were harvested by using trypsin and seeded at 6000 cells/well in 96-well plates. The same day, a non-liposomal formulation, FuGENE 6 reagent (Roche, Indianapolis, Ind.) was used for transfection of the cells. To each well was added 45.5 ng of the skeletal α-actin-LUC reporter plasmid, 4.55 ng pRShAR and 5 ng pRS-BG as carrier DNA. Twenty-four hours after transfection, different concentrations of the solvated compound (10^−10 to 10^−6 M) were added in triplicate to the cells and the cells were incubated for 24 hours. The medium was aspirated and the cells were lysed with a detergent-containing buffer. After addition of Luciferase Assay Buffer to each well, the cells were assayed for luciferase activity using a luminometer to determine the level of transcriptional activation.

Test [2] addresses endogenous human androgen receptor (hAR) (Homo sapiens, UniProt P10275). As to the kind of experiment: Activation of hAR-responsive luciferase reporter in MDA-MB-453 cells. How it is done: A functional assay was conducted to determine the ability of test substances to modulate gene expression via endogenous human androgen receptor (hAR) in a human cell line. A luciferase reporter assay was utilized to establish the ability of test compounds to activate hAR-regulated gene expression in a human cell line containing endogenously expressed hAR (MDAMB-453 cells) transfected with an androgen-responsive luciferase reporter plasmid containing the cDNA for firefly luciferase. MDA-MB-453 cells were transfected with a plasmid containing the cDNA for firefly luciferase (LUC) under the control of a conditional promoter containing hormone response elements recognized by AR (MMTV-LUC) and a P-galactosidase expression plasmid (pRS-(3-Gal) for normalization of transfection efficiency. The reporter plasmid MMTVLUC contains the mouse Mammary Tumor Virus (MMTV) Long Terminal Repeat (LTR) conditional promoter containing hormone response elements recognized by hAR. The luciferase response was calculated as: Luciferase response/β-gal rate where
Luciferase response=Relative Luciferase Units (RLU) and
β-gal rate=β-gal 0.D.415/β-Gal incubation time in minutes.
The mean of the normalized response at each concentration of compound was calculated. The effective concentration that produced 50% of the maximum response (EC50) was determined for each compound by interpolation between two concentrations spanning the midpoint of the concentration-response curve. Agonist efficacy for test compounds was calculated as a percent of normalized response relative to the maximum normalized response by the reference agonist DHT.

Test [3] has as its system TNFα-IL-1β-induced IL-6 promoter activity. Nature of the test: IL-6 promoter repression assay (Saos-2 human osteoblast cells transfected with human AR). The conditions noted are these: for pIC50: Homo sapiens, read-out: average IC50, suppression of TNFα-IL-1β-induced IL-6 promoter activity. The source says: An exemplary cotransfection assay for measuring AR-mediated effects on bone measures the modulation of IL-6 promoter activity. IL-6 is an important bone resorption factor (Jilka et al, Science 257: 88-91 (1992); Bellido et al., J Clin Invest 95: 2886-2895 (1995)). Overexpression of IL-6 can cause severe bone loss in vivo. […] It has been reported that androgens regulate IL-6 mRNA by suppressing NFKB binding to its response element (Keller et al., J Biol Chem 271: 26267-26275 (1996)). Thus, the AR-mediated modulation of IL-6 promoter activity provides an excellent marker for studying androgen action in bone. The assay is a cotransfection assay that measures the ability of compound to repress gene expression via the human androgen receptor from the IL-6 promoter using a luciferase reporter assay in human osteoblast cells.
A human osteoblast cell line (Saos-2, available from American Type Cell Culture (ATCC, Rockville, Md.)) can be used in the luciferase reporter assay. An IL-6-LUC reporter plasmid can be constructed by inserting the IL-6 promoter sequence into a luciferase reporter vector (e.g., by cloning the human IL-6 promoter region from −232 to +17 bp from human liver genomic DNA (Clontech, Palo Alti, Calif.) and inserting the sequence into a pGL2-enhancer reporter plasmid (Promega, Madison, Wis.)). The Saos-2 cell line can be transiently transfected with a human AR expression plasmid and a luciferase reporter plasmid containing the IL-6 promoter upstream of the luciferase cDNA. The compounds to be tested are added to the cells after transfection and after 24 hours of incubation, the cells are lysed with a detergent-containing buffer and assayed for luciferase activity. The EC50 is determined from the concentration response curve for the compound, and the inhibitory effect on TNFα/IL-1β induction (% inhibition) can be calculated according to the equation: […]
IL-6 is an important bone resorption factor. Over-expression of IL-6 can cause severe bone loss in vivo. Reducing IL-6 production by bone cells would be therapeutically beneficial by reducing bone resorption. Compound 102 and the androgen receptor modulators LG0893410 and LG0893411 were tested to determine their ability to suppress TNFα-IL-1β-induced IL-6 promoter activity in Saos-2 human osteoblast cells using a cotransfection assay. A human osteoblast cell line (Saos-2) was transiently transfected with a human AR expression plasmid and a luciferase reporter plasmid containing the IL-6 promoter upstream of the luciferase cDNA. Saos-2 cells were seeded at 6000 cells/well in 96-well plates. The same day, a non-liposomal formulation, FuGENE 6 reagent (Roche, Indianapolis, Ind.) was used for transfection of the cells. To each well was added […] of the IL-6-LUC reporter plasmid and 0.7 μg of pCMV-hAR. Twenty-four hours after transfection, different concentrations of the solvated compound (10^−11 to 10^−6 M) in DMEM (Dulbecco's Minimal Essential Media) were added in triplicate to the cells and the cells were incubated for 24 hours. The expression of luciferase was stimulated by the cytokines Tumor Necrosis Factor α (TNFα, 10 ng/mL) and Interleukin-1 beta (IL-1β, 1 ng/mL). The medium was aspirated and the cells were lysed with a detergent-containing buffer. After addition of Luciferase Assay Buffer to each well, the cells were assayed for luciferase activity using a luminometer to determine the level of transcriptional activation.

Setting [4] is: MDA-MB-453 cells, MMTV-LUC; read-out: EC50, activating hAR-responsive luciferase reporter.

The structures appear in SMILES notation. pEC50, pIC50: −log10 of the molar value. Where two headings read alike, the source gives them in different places.

endogenous human androgen receptor (hAR), sequence (P10275 whole entry): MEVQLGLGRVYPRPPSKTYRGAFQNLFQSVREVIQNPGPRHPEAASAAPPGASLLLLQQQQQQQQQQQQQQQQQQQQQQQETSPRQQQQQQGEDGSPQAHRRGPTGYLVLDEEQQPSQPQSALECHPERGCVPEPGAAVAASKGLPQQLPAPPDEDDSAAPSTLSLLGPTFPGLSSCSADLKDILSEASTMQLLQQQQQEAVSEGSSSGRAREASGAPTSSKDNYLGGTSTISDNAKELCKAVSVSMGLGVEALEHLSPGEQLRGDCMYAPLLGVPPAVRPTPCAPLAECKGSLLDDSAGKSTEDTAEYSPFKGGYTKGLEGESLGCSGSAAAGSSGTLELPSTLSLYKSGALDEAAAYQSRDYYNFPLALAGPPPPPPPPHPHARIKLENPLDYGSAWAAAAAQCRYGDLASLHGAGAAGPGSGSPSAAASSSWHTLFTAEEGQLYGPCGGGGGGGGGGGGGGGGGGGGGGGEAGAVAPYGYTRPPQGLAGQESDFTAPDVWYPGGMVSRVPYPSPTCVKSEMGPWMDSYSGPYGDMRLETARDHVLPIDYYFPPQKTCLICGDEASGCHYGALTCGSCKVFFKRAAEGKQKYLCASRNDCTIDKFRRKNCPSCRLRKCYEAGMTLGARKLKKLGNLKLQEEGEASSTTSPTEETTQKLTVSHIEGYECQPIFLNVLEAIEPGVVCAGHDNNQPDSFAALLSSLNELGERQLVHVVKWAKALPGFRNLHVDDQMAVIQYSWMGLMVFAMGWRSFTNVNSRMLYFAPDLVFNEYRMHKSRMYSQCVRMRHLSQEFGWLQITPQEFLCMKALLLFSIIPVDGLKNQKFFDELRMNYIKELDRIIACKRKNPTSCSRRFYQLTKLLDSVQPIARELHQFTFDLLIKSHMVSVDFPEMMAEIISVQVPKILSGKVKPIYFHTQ

Consider `N#Cc1ccc(N2CCC[C@@H]2[C@@H](O)C(F)(F)F)cc1C(F)(F)F` [Compound 102, R,R-4-(2-(1-Hydroxyl-2,2,2-trifluoroethyl)-pyrrolidinyl)-2-trifluoromethyl-benzonitrile], for which, in test [1], the pEC50 (as a rule, −log10 of the EC50, conventionally taken in molar units) was 8.06 and the “efficacy, % of DHT” value was 93%. Besides, in test [1] (concentration 1×10^−7 M), the “increase of skeletal α-actin promoter activity compared to vehicle control” value is listed as “about 17.5 fold”. Moreover, the “more potent in stimulating muscle cells than LG0893410 and LG0893411” value in test [1] (ratio of EC50) is listed as 5-10 fold. In addition, the “more potent than LG0893410 and LG0893411 in activating hAR-responsive luciferase reporter” value in test [2] (ratio of EC50) lay within 8.5 to 12.5 times. Besides, the pEC50 in test [2] (read-out: EC50, activating hAR-responsive luciferase reporter; MDA-MB-453 cells, MMTV-LUC) was 8.55. Further, in test [3] (Saos-2 cells), the pIC50 (usually −log10 of the IC50, conventionally taken in molar units) was 9.39 and the “efficacy, % of DHT” value was 97%. In addition, the “more potent than LG0893410 and LG0893411 in suppressing IL-6 promoter activity” value in test [3] (ratio of IC50) was 3-4 fold.
As for `O=[N+]([O-])c1ccc(N2CCC[C@@H]2[C@@H](O)C(F)(F)F)cc1C(F)(F)F` [LG0893410, R,R-2,2,2-trifluoro-1-[1-(4-nitro-3-trifluoromethyl-phenyl)-pyrrolidin-2-yl]-ethanol], the pEC50 is 7.34 in test [1] and 7.62 in test [2] (setting [4]). The “efficacy, % of DHT” value in test [1] is on record as 43%. Also, the pIC50 in test [3] (Saos-2 cells) was 8.92.
The like results for `O=[N+]([O-])c1ccc(N2CCC[C@@H]2[C@H](O)C(F)(F)F)cc1C(F)(F)F` [LG0893411, S, R-2,2,2-trifluoro-1-[1-(4-nitro-3-trifluoromethyl-phenyl)-pyrrolidin-2-yl]-ethanol] were, in that order, 7.07, 7.46, 59% and 8.82.
